In brackets after ≈: the same amount, converted by molar mass. Several values for one entry are separate records, joined by “and”; a condition that tells them apart may be missing. Equal entries are not always repeated. Values belong to the compound of their own block, whether it stands above or below them.
What was measured:
Test in all cases: ≥ marks a high value that may be exact or a test limit, other limits are often not marked, values filed in µg/mL are converted to µM
[1] = test system: Staphylococcus carnosus KHS
[2] = test system: Rhodococcus rhodochrous X15
[3] = test system: Enterococcus faecium 091299
[4] = test system: Psychrobacter faecalis X29
[5] = test system: Bacillus licheniformis X39
[6] = test system: Escherichia coli ATCC 25922
[7] = test system: Staphylococcus aureus ATCC 25923
[8] = test system: Candida albicans ATCC 2002
[9] = test system: Enterococcus faecalis 981
[10] = test system: Candida albicans F7-39/IDE99
Escherichia coli B = test system: Escherichia coli B
[11] = test system: Pseudomonas aeruginosa ATCC 15692
Bacillus subtilis 168 = test system: Bacillus subtilis 168
[12] = test system: Listeria monocytogenes KCTC 3710
[13] = test system: Staphylococcus aureus 547582
[14] = test system: Staphylococcus aureus ATCC 29213
[15] = test system: Pseudomonas aeruginosa 3320
[16] = test system: Pseudomonas aeruginosa ATCC 27853
Staphylococcus aureus = test system: Staphylococcus aureus
Mannheimia haemolytica = test system: Mannheimia haemolytica
Streptococcus uberis = test system: Streptococcus uberis
[17] = test system: Batrachochytrium dendrobatidis
Bacillus cereus = test system: Bacillus cereus
Escherichia coli = test system: Escherichia coli
Enterococcus faecalis = test system: Enterococcus faecalis
[18] = test system: Leuconostoc mesenteroides
Micrococcus luteus = test system: Micrococcus luteus
[19] = test system: Streptococcus mutans ATCC 10449
[20] = test system: Stenotrophomonas maltophilia
[21] = test system: Acinetobacter baumannii I NM8
[22] = test system: Fusobacterium nucleatum NCTC 10562
[23] = test system: Enterococcus faecalis NCTC 12697
[24] = test system: Klebsiella pneumoniae ATCC 700603
[25] = test system: Pseudomonas aeruginosa PAO239
[26] = test system: Candida albicans NCTC 3179
[27] = test system: Staphylococcus aureus ATCC 9144
[28] = test system: Acinetobacter baumannii ATCC 17978
[29] = test system: Escherichia coli ATCC 25726
[30] = test system: Candida albicans ATCC 90028
[31] = test system: Staphylococcus aureus USA 300
[32] = test system: Acinetobacter baumannii AYE
[33] = test system: Klebsiella pneumoniae NCTC 13368
[34] = test system: Pseudomonas aeruginosa NCTC 13437
[35] = test system: Staphylococcus aureus NCTC 13616
Escherichia coli LEC001 = test system: Escherichia coli LEC001
Klebsiella pneumoniae M6 = test system: Klebsiella pneumoniae M6
[36] = test system: Escherichia coli NCTC 12923
[37] = test system: Pseudomonas aeruginosa PAO1

SMILES: CC[C@H](C)[C@H](NC(=O)[C@H](CCCCN)NC(=O)[C@H](CC(C)C)NC(=O)[C@H](C)NC(=O)[C@H](CCCCN)NC(=O)CNC(=O)[C@H](CC(C)C)NC(=O)[C@@H](NC(=O)[C@H](CO)NC(=O)CNC(=O)[C@H](CC(C)C)NC(=O)CN)C(C)C)C(=O)NCC(=O)N[C@@H](C)C(=O)N[C@@H](CC(N)=O)C(=O)N[C@@H](CC(C)C)C(=O)N[C@@H](CC(C)C)C(N)=O [GLGSVLGKALKIGANLL]
- MIC [19]: 3.1 µM (≈ 5.03 µg/mL)
- MIC [20]: 4 µM (≈ 6.49 µg/mL)
- MIC [21]: 6 µM (≈ 9.74 µg/mL)
- MIC [22]: 6.25 µM (≈ 10.1 µg/mL)
- MIC [6]: 12.5 µM (≈ 20.3 µg/mL)
- MIC [23]: ≥ 100 µM
- MIC [24]: 25 µM (≈ 40.6 µg/mL)
- MIC [7]: 6 µM (≈ 9.74 µg/mL)
- MIC [16]: 25 µM (≈ 40.6 µg/mL)
- MIC [25]: 25 µM (≈ 40.6 µg/mL)
- MIC [26]: ≥ 50 µM

SMILES: CSCC[C@H](NC(=O)[C@H](CCSC)NC(=O)[C@H](CCCCN)NC(=O)CNC(=O)[C@@H](NC(=O)[C@@H](NC(=O)[C@H](CCCCN)NC(=O)[C@H](CC(C)C)NC(=O)CNC(=O)[C@H](Cc1ccccc1)NC(=O)[C@H](CCCCN)NC(=O)[C@H](Cc1ccccc1)NC(=O)[C@H](C)NC(=O)[C@H](CCCCN)NC(=O)CNC(=O)[C@H](CC(C)C)NC(=O)[C@H](CC(C)C)NC(=O)[C@H](CO)NC(=O)CNC(=O)[C@H](CC(C)C)NC(=O)CN)[C@@H](C)O)C(C)C)C(=O)NCC(=O)NCC(=O)N[C@@H](C)C(=O)N1CCC[C@H]1C(=O)N[C@@H](CCCN=C(N)N)C(=O)N[C@@H](CCC(=O)O)C(=O)N[C@@H](CCC(N)=O)C(=O)O [GLGSLLGKAFKFGLKTVGKMMGGAPREQ]
- MIC [27]: 1.39 µM (≈ 4 µg/mL)
- MIC [28]: 1.39 µM (≈ 4 µg/mL)
- MIC [29]: 3 µM (≈ 8.64 µg/mL)
- MIC [30]: 25 µM (≈ 72 µg/mL)
- MIC [31]: 2.78 µM (≈ 8 µg/mL)
- MIC [32]: 1.39 µM (≈ 4 µg/mL)
- MIC [33]: 11.1 µM (≈ 32 µg/mL)
- MIC [34]: ≥ 44.5 µM
- MIC [35]: 1.39 µM (≈ 4 µg/mL)
- MIC (Escherichia coli LEC001): 2.78 µM (≈ 8 µg/mL)
- MIC [7]: 6 µM (≈ 17.3 µg/mL)
- MIC (Klebsiella pneumoniae M6): 5.56 µM (≈ 16 µg/mL)
- MIC [36]: 2.78 µM (≈ 8 µg/mL)
- MIC [37]: > 44.5 µM

Now from value to compound, other results behind:

- MIC [1]: 4.8 µM (≈ 12.8 µg/mL)
- MIC [2]: 1.2 µM (≈ 3.2 µg/mL)
- MIC [3]: 19 µM (≈ 50.6 µg/mL)
- MIC [4]: 4.8 µM (≈ 12.8 µg/mL)
- MIC [5]: 2.4 µM (≈ 6.39 µg/mL)
- MIC [6]: 150 µM (≈ 400 µg/mL)
- MIC [7]: 1.2 µM (≈ 3.2 µg/mL)
- MIC [8]: 2.4 µM (≈ 6.39 µg/mL)
- MIC [9]: 19 µM (≈ 50.6 µg/mL)
SMILES: CC[C@H](C)[C@H](NC(=O)[C@H](CC(C)C)NC(=O)[C@@H]1CCCN1C(=O)[C@H](CC(C)C)NC(=O)[C@@H](N)Cc1ccccc1)C(=O)N[C@@H](C)C(=O)N[C@@H](CO)C(=O)N[C@@H](CC(C)C)C(=O)N[C@@H](C)C(=O)N[C@@H](C)C(=O)N[C@@H](CC(N)=O)C(=O)N[C@@H](Cc1ccccc1)C(=O)N[C@H](C(=O)N1CCC[C@H]1C(=O)N[C@@H](CCCCN)C(=O)N[C@H](C(=O)N[C@@H](Cc1ccccc1)C(=O)N[C@H]1CSSC[C@@H](C(=O)O)NC(=O)[C@H](CCCCN)NC(=O)[C@H](CCCCN)NC(=O)[C@H]([C@@H](C)O)NC(=O)[C@H]([C@@H](C)CC)NC(=O)[C@H](CCCCN)NC1=O)[C@@H](C)CC)C(C)C [FLPLIASLAANFVPKIFCKITKKC]

- MIC [10]: 6.3 µM (≈ 8.93 µg/mL)
- MIC (Escherichia coli B): 3 µM (≈ 4.25 µg/mL)
- MIC [11]: 6.25 µM (≈ 8.86 µg/mL)
- MIC (Bacillus subtilis 168): 1.3 µM (≈ 1.84 µg/mL)
- MIC [12]: 25 µM (≈ 35.4 µg/mL)
- MIC [13]: 8 µM (≈ 11.3 µg/mL)
- MIC [14]: 3.13 µM (≈ 4.43 µg/mL)
- MIC [6]: 6.25 µM (≈ 8.86 µg/mL)
- MIC [15]: 8 µM (≈ 11.3 µg/mL)
- MIC [7]: 3.13 µM (≈ 4.43 µg/mL)
- MIC [16]: 6.25 µM (≈ 8.86 µg/mL)
- MIC (Staphylococcus aureus): 3.7 µM and 4.43 µM
SMILES: CSCC[C@H](NC(=O)CNC(=O)[C@H](Cc1ccccc1)NC(=O)CN)C(=O)N[C@@H](C)C(=O)N[C@@H](CC(C)C)C(=O)N[C@@H](CCCCN)C(=O)N[C@@H](CC(C)C)C(=O)N[C@@H](CC(C)C)C(=O)N[C@@H](CCCCN)C(=O)N[C@@H](CCCCN)C(=O)N[C@H](C(=O)N[C@@H](CC(C)C)C(N)=O)C(C)C [GFGMALKLLKKVL]

- MIC (Streptococcus uberis): 22.9 µM (≈ 48 µg/mL)
- MIC [17]: ≥ 100 µM
- MIC (Bacillus cereus): 5.73 µM (≈ 12 µg/mL)
- MIC (Escherichia coli): 22.9 µM (≈ 48 µg/mL)
- MIC (Enterococcus faecalis): ≥ 68.8 µM
- MIC [18]: 11.5 µM (≈ 24 µg/mL)
- MIC (Micrococcus luteus): 0.688 µM (≈ 1.44 µg/mL)
- MIC (Staphylococcus aureus): 45.8 µM (≈ 96 µg/mL)
SMILES: CSCC[C@H](N=C(O)[C@H](CC(C)C)N=C(O)CN)C(O)=N[C@@H](CO)C(O)=N[C@H](C(O)=N[C@@H](CC(C)C)C(O)=NCC(O)=N[C@@H](Cc1cnc[nH]1)C(O)=N[C@@H](C)C(O)=N[C@H](C(O)=NCC(O)=N[C@@H](CC(=N)O)C(O)=N[C@H](C(O)=N[C@@H](CC(C)C)C(O)=NCC(O)=NCC(O)=N[C@@H](CC(C)C)C(O)=N[C@@H](Cc1ccccc1)C(O)=N[C@@H](CCCCN)C(=O)N1CCC[C@H]1C(O)=N[C@@H](CCCCN)C(=O)O)C(C)C)C(C)C)C(C)C [GLMSVLGHAVGNVLGGLFKPKS]
- MIC (Mannheimia haemolytica): 0.367 µM (≈ 0.768 µg/mL)

— DBAASP
